Measurements published in US20220274927A1, “MEMBRANE-ACTIVE ANTI-BACTERIAL COMPOUNDS AND USES THEREOF” (Trustees of Dartmouth College, priority 2019, published 2022).
Values after ≈ are worked out from the molar mass of the structure shown. Like-named read-outs stand apart in the source and are kept apart here.

How the values were obtained:
[1] = test system: methicillin-resistant S. aureus (FPR3757); experiment: MIC against clinical MRSA strain FPR3757 in Mueller-Hinton broth (CLSI); type: cell-based, Staphylococcus aureus
Excerpt: The first set of compounds evaluated were analogs at the C-7 and C-8 positions of the initial quinolone hit DNAC-2 since the other HTS hits identified (data not shown) were substituted at these positions (Table 1). Applicants first explored modification at the C-7 position with a small series of electron-donating and withdrawing substituents. […] However, analogs containing electron donating groups at C-7 including ethyl 7, benzyloxy 8, methoxy 9 and methylthio 10 are weakly active displaying MICs of 320-640 μg/mL indicating electron-donating substituents at C-7 are poorly tolerated. […] The C-8 position was evaluated with trifluoromethyl 4 and trifluoromethoxy 5 containing the optimal C-7 substituents. Both 4 and 5 are equipotent to the corresponding C-7 analogs 2 and 3 indicating some flexibility of the quinolone scaffold.

[2] = test system: S. aureus membranes (versus erythrocyte membranes); experiment: in vitro; type: cell-based, sheep; details: sheep
Protocol: (§1) FIG. 8 illustrates percent hemolysis analysis of sheep erythrocytes. Concentration-dependent hemolysis was measured by monitoring the optical density (OD)540 of PBS-washed sheep erythrocytes. Complete hemolysis (100%) was confirmed by treatment of erythrocytes with Triton X-100. Data points represent the mean±SD of triplicate experiments.
(§2) The macromolecular synthesis assay, TEM, and FM experiments were all consistent with membrane disruption. […] The high membrane selectivity of the 5-aminoquinolin-4-ones in this assay is impressive and is in accordance with the observed therapeutic index (CC50/MIC).

sheep erythrocytes = experiment: in vitro; type: cell-based
Protocol: as §1, §2

[3] = test system: erythrocyte membranes (versus S. aureus membranes); experiment: in vitro; type: cell-based, sheep; details: sheep; read-out: selectivity for S. aureus membranes over erythrocyte membranes
Protocol: as §1, §2

[4] = Staphylococcus aureus, MRSA, MRSA clinical strain FPR3757, Mueller-Hinton broth, CLSI guidelines, complete inhibition of observable growth, read-out: MIC
[5] = MRSA clinical strain FPR3757, Mueller-Hinton broth, CLSI guidelines, complete inhibition of observable growth
[6] = Staphylococcus aureus, MRSA, MRSA clinical strain FPR3757, Mueller-Hinton broth, CLSI guidelines, complete inhibition of observable growth

Molecule	MIC [1, 4] [µg/mL]	MIC [1, 5] [µg/mL]	also measured
O=c1cc(C(F)(F)F)[nH]c2cc(C(F)(F)F)cc(Nc3ccc(Cl)c(Cl)c3)c12 [Compound 108]	< 0.06		selectivity ratio [2]: > 500
FC(F)(F)Oc1ccc2c(Nc3ccc(Cl)c(Cl)c3)cc(C(F)(F)F)nc2c1 [Compound 32]	0.5 to 1 (≈ 1.13 to 2.27 µM)		
CN(C)c1ccc(Nc2cc(C(F)(F)F)cc3[nH]c(C(F)(F)F)cc(=O)c23)nc1 [Compound 113]	1 to 2 (≈ 2.4 to 4.8 µM)	2 (≈ 4.8 µM)	
FC(F)(F)Oc1ccc2c(Nc3ccc(C(F)(F)F)cn3)cc(C(F)(F)F)nc2c1 [Compound 34]	0.5 to 1 (≈ 1.13 to 2.27 µM)	1 (≈ 2.27 µM)	
CC(C)c1ccccc1Nc1cc(C(F)(F)F)nc2cc(C(F)(F)F)ccc12 [Compound 12]	320 (≈ 803 µM)		
Oc1ncccc1Nc1cc(C(F)(F)F)nc2cc(C(F)(F)F)ccc12 [Compound 51]	> 128		
COc1ccc2c(Nc3cccc(OC(F)(F)F)c3)cc(C(F)(F)F)nc2c1 [Compound 37]	> 32		
FC(F)(F)c1ccc2c(Nc3ncccn3)cc(C(F)(F)F)nc2c1 [Compound 56]	> 32	>32	
FC(F)(F)Oc1cccc2c(Nc3ccc(Cl)c(Cl)c3)cc(C(F)(F)F)nc12 [Compound 42]	0.5 (≈ 1.13 µM)		
FC(F)(F)Oc1cccc2c(Nc3ccc(C(F)(F)F)cn3)cc(C(F)(F)F)nc12 [Compound 44]	1 (≈ 2.27 µM)		
FC(F)(F)Oc1cccc(Nc2cc(C(F)(F)F)nc3c(OC(F)(F)F)cccc23)c1 [Compound 1]		8 (≈ 17.5 µM)	
FC(F)(F)c1ccc2c(Nc3cccc(Br)c3)cc(C(F)(F)F)nc2c1 [Compound 19]	0.25 (≈ 0.574 µM)		
FC(F)(F)c1ccc2c(Nc3ccc(C(F)(F)F)nc3)cc(C(F)(F)F)nc2c1 [Compound 49]	> 32		
OCc1cccc(Nc2cc(C(F)(F)F)nc3cc(C(F)(F)F)ccc23)c1 [Compound 23]	> 16		
CCc1ccc2c(=O)cc(C(F)(F)F)[nH]c2c1 [Compound 7]	320 to 640 (≈ 1330 to 2650 µM)	320 (≈ 1330 µM)	
O=C1Cc2cc(Nc3cc(C(F)(F)F)nc4cc(C(F)(F)F)ccc34)ccc2N1 [Compound 64]	> 32	>32	
COc1ccc2c(Nc3ccc(F)c(F)c3)cc(C(F)(F)F)nc2c1 [Compound 36]	> 32		
FC(F)(F)c1ccc(Nc2cc(C(F)(F)F)nc3c(C(F)(F)F)cccc23)nc1 [Compound 47]	0.5 (≈ 1.18 µM)		
Cn1cc(Nc2cc(C(F)(F)F)nc3cc(C(F)(F)F)ccc23)ccc1=O [Compound 50]	> 32		
FC(F)(F)c1ccc(Nc2nc(C(F)(F)F)nc3cc(C(F)(F)F)ccc23)nc1 [Compound 91]			fold loss of potency (MIC) relative to the comparator ([1]; MRSA FPR3757 MIC ratio): 8 fold
O=c1cc(C(F)(F)F)[nH]c2c(C(F)(F)F)cccc12 [Compound 4]	2 to 4 (≈ 7.11 to 14.2 µM)		
O=c1cc(C(F)(F)F)[nH]c2cc(C(F)(F)F)cc(N3CCOCC3)c12 [Compound 118]	> 32		
Triton X-100 [reference compound]			lysis (positive control) (sheep erythrocytes): 100%
FC(F)(F)c1ccc2c(Nc3cccc(I)c3)cc(C(F)(F)F)nc2c1 [Compound 20]	0.25 (≈ 0.518 µM)		
FC(F)(F)c1ccc(Nc2cc(N3CCOCC3)c3ccc(C(F)(F)F)cc3n2)nc1 [Compound 105]		8 (≈ 18.1 µM)	
CSc1ccc2c(=O)cc(C(F)(F)F)[nH]c2c1 [Compound 10]		640 (≈ 2470 µM)	
COc1ccc2c(Nc3ccc(Cl)c(Cl)c3)cc(C(F)(F)F)nc2c1 [Compound 35]	2 (≈ 5.17 µM)		
O=c1cc(C(F)(F)F)[nH]c2cc(OC(F)(F)F)ccc12 [Compound 3]	4 to 8 (≈ 13.5 to 26.9 µM)		

Molecule	MIC [1, 4] [µg/mL]	MIC [1, 5] [µg/mL]	also measured
FC(F)(F)c1ccc(Nc2cc(N3CCNCC3)c3ccc(C(F)(F)F)cc3n2)nc1 [Compound 103]		4 to 8	
FC(F)(F)c1ccc2c(Nc3ccc(Cl)cc3)cc(C(F)(F)F)nc2c1 [Compound 17]	0.125 to 0.25 (≈ 0.32 to 0.64 µM)	0.12 (≈ 0.307 µM)	
O=c1cc(C(F)(F)F)[nH]c2cc(OCc3ccccc3)ccc12 [Compound 8]		640 (≈ 2000 µM)	
O=c1cc(C(F)(F)F)[nH]c2cc(C(F)(F)F)cc(NC3CCC(C(F)(F)F)CC3)c12 (stereo not shown) [Compound 117]	< 0.06		selectivity ratio [2]: > 500; hemolysis (sheep erythrocytes; sheep, 32 μg/mL): None of the compounds except 76, displayed any hemolysis
O=c1cc(C(F)(F)F)[nH]c2cc(C(F)(F)F)cc(Nc3cccc(OC(F)(F)F)c3)c12 [Compound 110]	0.06 to 0.12 (≈ 0.132 to 0.263 µM)		selectivity ratio [3]: > 500
FC(F)(F)c1ccc2c(Nc3ccc(Cl)c(Cl)c3)nc(C(F)(F)F)nc2c1 [Compound 89]		0.5 (≈ 1.17 µM)	fold loss of potency (MIC) relative to the comparator ([1]; MRSA FPR3757 MIC ratio): 8 fold
FC(F)(F)c1ccc2c(Nc3ccc(N4CCOCC4)cc3)cc(C(F)(F)F)nc2c1 [Compound 30]	> 16		
FC(F)(F)c1ccc2c(Nc3cc(Cl)ccn3)cc(C(F)(F)F)nc2c1 [Compound 48]	2 (≈ 5.11 µM)		fold loss of potency (MIC) relative to the comparator ([1]; MRSA FPR3757 MIC ratio): 8 fold
COc1ccc2c(Nc3ccc(C(F)(F)F)cn3)cc(C(F)(F)F)nc2c1 [Compound 38]	32 (≈ 82.6 µM)		
FC(F)(F)c1ccc2c(Nc3ccccc3)cc(C(F)(F)F)nc2c1 [Compound 11]			MIC ([1]; Staphylococcus aureus, MRSA): 128 µg/mL (≈ 359 µM)
Fc1ccc(Nc2cc(C(F)(F)F)nc3cc(C(F)(F)F)ccc23)cc1F [Compound 21]	0.125 to 0.25 (≈ 0.319 to 0.637 µM)	0.12 to 0.25	
FC(F)(F)Oc1cccc(Nc2nc(C(F)(F)F)nc3cc(C(F)(F)F)ccc23)c1 [Compound 90]		1 (≈ 2.27 µM)	fold increase in potency (MIC) relative to the comparator ([1]; MRSA FPR3757 MIC ratio): 8 fold
FC(F)(F)c1ccc2c(Nc3ccncc3)cc(C(F)(F)F)nc2c1 [Compound 53]		>32	MIC [1, 6]: > 32 µg/mL
CSc1cccc(Nc2cc(C(F)(F)F)nc3cc(C(F)(F)F)ccc23)c1 [Compound 24]		0.25 to 0.5	
O=c1cc(C(F)(F)F)[nH]c2cc(C(F)(F)F)cc(-c3ccc(C(F)(F)F)nn3)c12 [Compound 114]	1 to 2 (≈ 2.34 to 4.68 µM)	1 (≈ 2.34 µM)	
O=c1cc(C(F)(F)F)[nH]c2cc(C(F)(F)F)cc(Nc3ccc(F)cn3)c12 [Compound 112]	0.12 (≈ 0.307 µM)		
FC(F)(F)c1ccc2c(Nc3nccs3)cc(C(F)(F)F)nc2c1 [Compound 55]	2 (≈ 5.51 µM)	1 to 2	
O=c1cc(C(F)(F)F)[nH]c2cc(C(F)(F)F)cc(Nc3ccc(F)c(F)c3)c12 [Compound 109]	< 0.06		selectivity ratio [2]: > 500
FC(F)(F)c1ccc2c(NC3CCCCC3)cc(C(F)(F)F)nc2c1 [Compound 57]		>16	MIC [1, 6]: > 32 µg/mL
O=c1cc(Nc2cc(C(F)(F)F)nc3cc(C(F)(F)F)ccc23)cc[nH]1 [Compound 52]	> 32		
CC(=O)c1cccc(Nc2cc(C(F)(F)F)nc3cc(C(F)(F)F)ccc23)c1 [Compound 13]			MIC ([1]; Staphylococcus aureus, MRSA): > 128 µg/mL
O=c1cc(C(F)(F)F)[nH]c2cc(Nc3ccc(F)c(F)c3)cc(C(F)(F)F)c12 [Compound 120]	4 (≈ 9.8 µM)		
FC(F)(F)c1ccc2c(Nc3ccccc3Cl)cc(C(F)(F)F)nc2c1 [Compound 15]	> 16		
FC(F)(F)c1ccc(Nc2cc(N3CCNCC3)nc3cc(C(F)(F)F)ccc23)nc1 [Compound 102]		0.5 to 1	
OC1CCCN(c2cc(C(F)(F)F)nc3cc(C(F)(F)F)ccc23)C1 (stereo not shown) [Compound 58]	> 32	>32	
CN1Cc2cc(Nc3cc(C(F)(F)F)nc4cc(C(F)(F)F)ccc34)ccc2C1=O [Compound 62]	> 32	>32	
FC(F)(F)c1cc(Nc2ccc(Cl)c(Cl)c2)c2cccc(C(F)(F)F)c2n1 [Compound 45]	0.5 to 2 (≈ 1.18 to 4.7 µM)		
